Key:
[1] = tested on: HCT-116 colon cancer cells; experiment: Cell Glo luminescence cell growth assay, HCT-116; type: cell-based, human; conditions: Homo sapiens, HCT-116, 24 h, NS = not statistically significant, read-out: Effectiveness to suppress HCT-116 cell growth (cell growth inhibition)
Text: (§1) The CellTiter-Glo® Luminescent Cell Viability Assay (Promega Corporation; Madison, WI) is a homogeneous method of determining the number of viable cells in culture based on quantitation of the ATP present, an indicator of metabolically active cells. The homogeneous assay procedure involves adding the single reagent (CellTiter-Glo® Reagent) directly to cells cultured in serum-supplemented medium. The homogeneous “add-mix-measure” format results in cell lysis and generation of a luminescent signal proportional to the amount of ATP present. The amount of ATP is directly proportional to the number of cells present in culture.
(§2) Cancer cells (3,000 cells/well) were harvested in a 96-well plate. Then, the cancer cells were treated with GS compounds and incubated for 24 hours. The MT Cell Viability Substrate, NanoLuc® Enzyme and cell culture medium was equilibrated to 37° C. The 2× RealTime-Glo™ reagent was prepared by diluting the MT Cell Viability Substrate and NanoLuc® Enzyme in 37° C. cell culture medium to a 2× concentration for each reagent. For example, 1 mL of 2× RealTime-Glo™ reagent was prepared by adding 2 μL of MT Cell Viability Substrate, 1,000×, and 2 μL of NanoLuc® Enzyme, 1,000×, to 996 μL of cell culture medium to form the 2× RealTime-Glo™ reagent. Then, an equal volume of 2× RealTime-Glo™ reagent was added to the cancer cells. The cells were kept for ˜20 minutes in the cell culture incubator and then luminescence was measured by using a plate-reading luminometer.
HCT-116 is a human colorectal cancer cell lines that has a mutation in RAS proto-oncogene.
(§3) The effects of exemplary compounds on cancer cell lines and one non-tumorigenic cell line (control) were investigated using a high throughput screening assay. More specifically, the effects of the GS compounds on cell growth was evaluated by the XTT assay for cell lines HepG2, HeLa, MCF7 ER+, MDA-MB-231, and MKN-45, and by the Cell Glo luminescence assay for cell lines MIA PaCa-2, HCT-116, MCF-10A, and PANC-1.

[2] = tested on: MDA-MB-231 triple negative breast cancer cells; experiment: XTT cell growth assay, MDA-MB-231; type: cell-based, human; conditions: Homo sapiens, MDA-MB-231, 24 h, NS = not statistically significant, read-out: Effectiveness to suppress MDA-MB-231 cell growth (cell growth inhibition)
Text: (§4) The XTT assay is used to measure cellular metabolic activity as an indicator of cell viability, proliferation and cytotoxicity. This non-radioactive, colorimetric assay system was first described by Scudiero, et al. in 1988 (Paull, Kenneth D. et al., J Heterocycl Chem, 1988, 25: 911-914; Scudiero, Dominic A. et al., Cancer Res, 1988, 48: 4827-4833) and improved in subsequent years by several other investigators (Weislow, Owen S. et al., J Natl Cancer Inst, 1989, 81(8): 577-586; Roehm, N. W. et al., J Immunol Methods, 1991, 142: 257-265).
(§5) The XTT assay is based on the reduction of a yellow tetrazolium salt (sodium 3′-[1-(phenylaminocarbonyl)-3,4-tetrazolium]-bis (4-methoxy6-nitro) benzene sulfonic acid hydrate or XTT) to an orange formazan dye by metabolically active cells (FIG. 8). The formazan dye formed is soluble in aqueous solutions and is directly quantified using a scanning multiwell spectrophotometer (ELISA reader). An increase in number of living cells results in an increase in the overall activity of mitochondrial dehydrogenases in the sample. This increase directly correlates to the amount of orange formazan formed, as monitored by the absorbance. Reduced number of living cells leads to reduced metabolism of quaternary salt and therefore reduced absorption.
(§6) Cell viability was assessed using the XTT assay kit (Roche, Mannheim, Germany) as described previously (Kouka, Paraskevi et al., Oxid Med Cell Longev. 2019, Article ID 1870965). Briefly, cancer cells per well were cultured in a 96-well plate in Dulbecco's modified Eagle's medium (DMEM). Following a 24 h incubation, 5, 10 and 50 μM of the tested GS compound was diluted in a serum-free DMEM and administered for 24 h. Subsequently, 50 μL of the XTT reagent (50:1) was added to each well. After 4 h of incubation, the absorbance was monitored at 450 nm and also at 630 nm as a reference wavelength in a BioTek ELx800 microplate reader (BioTek Instruments Inc., Winooski, VT, USA). As a negative control, samples containing serum-free DMEM only were used.
MDA-MB-231 is a human epithelial breast cancer cell line that was established from a pleural effusion of a person with a metastatic mammary adenocarcinomal and is one of the most commonly used breast cancer cell lines in medical research laboratories.
as §3

[3] = ABTS radical cation scavenging assay; type: biochemical; conditions: NS = not statistically significant
Text: The method of estimating antioxidant capacity, based on the ability to interact with the ABTS.+ radical cation was first performed by Miller et al. in 1993 (Miller, Nicholas et al., Clinical Science, 1993, 84: 407-412, “A novel method for measuring the antioxidant capacity and its application to monitoring the antioxidant status in premature neonates”). The mechanism of interaction of the antioxidant agents to be examined with the ABTS.+ radical is similar to that of the DPPH. radical, which can be inactivated either by the addition of an electron or by the addition of a hydrogen atom. However, unlike the DPPH. radical, which is a stable radical from the beginning, the ABTS.+ radical must be produced by the oxidation of ABTS. Thus, in order to estimate the antioxidant capacity of a substance, the formation of the ABTS.+ radical must first precede and the addition of the substance to be examined must follow. The addition of the antioxidant agent is performed after the production of the root ABTS.+ to avoid the interaction of the antioxidant agents with the oxidizing agents used for the oxidation of ABTS.
The oxidation of ABTS takes place either through chemical reactions with various reagents or through the action of enzymes such as peroxidases. The ABTS.+ radical from the moment it is formed is stable, has a green color and absorbs at 730 nm. When a substance with antioxidant activity is added to the solution, then the ABTS.+ radical is reduced by the addition of a hydrogen (or electron) atom, resulting in reduced visual absorption.
To assess the antioxidant capacity of the samples, the oxidation of ABTS was performed enzymatically through the action of horseradish peroxidase (HRP), in the presence of H2O2 (FIG. 3)
The anti-oxidant capacity of the GS compounds was evaluated by performing the ABTS assay as previously described (Kouka, Paraskevi et al., Oxid Med Cell Longev. 2019, Article ID 1870965). Briefly, in a total reaction volume of 1 mL in distilled water (dH2O), ABTS.^+ (1 mM), H2O2 (30 μM), and horseradish peroxidase (HRP) (6 μM) in 50 mM phosphate-buffered saline were added. The solution was incubated for 45 min at room temperature (RT) in the dark. Finally, 10 μL of the tested GS compound at various concentrations was added, and the absorbance was monitored on a Hitachi U-1900 radio beam spectrophotometer (serial no. 2023-029; Hitachi Ltd.) at 730 nm. In each experiment, a blank without the HRP was used, while the ABTS.^+ radical solution without the extract was used as the control. The RSC percentage of the tested extracts was calculated using the following equation: RSC (%)=[(ODcontrol−ODcompound)/ODcontrol]×100, where ODcontrol and OD sample are the optical density (OD) values of the control and the test sample, respectively.

[4] = tested on: MCF-7 ER+ breast cancer cells; experiment: XTT cell growth assay, MCF-7 ER+; type: cell-based, human; conditions: Homo sapiens, MCF7, 24 h, NS = not statistically significant, read-out: Effectiveness to suppress MCF7 cell growth (cell growth inhibition)
Text: as §4, §5, §6
MCF-7 ER+ is a human breast cancer cell line isolated in 1970 from a person. Prior to MCF-7, it was not possible for cancer researchers to obtain a mammary cell line that was capable of living longer than a few months.
as §3

[5] = tested on: HepG2 liver cancer cells; experiment: XTT cell growth assay, HepG2; type: cell-based, human; conditions: Homo sapiens, HepG2, 24 h, NS = not statistically significant, read-out: Effectiveness to suppress HepG2 cell growth (cell growth inhibition)
Text: as §4, §5, §6
Hep G2 (or HepG2) is a human liver cancer cell line. Hep G2 is an immortal cell line which was derived from the liver tissue of an adolescent with a well-differentiated hepatocellular carcinoma. Hep G2 cells are a suitable in vitro model system for the study of polarized human hepatocytes.
as §3

[6] = tested on: HeLa cervical cancer cells; experiment: XTT cell growth assay, HeLa; type: cell-based, human; conditions: Homo sapiens, HeLa, 24 h, NS = not statistically significant, read-out: Effectiveness to suppress HeLa cell growth (cell growth inhibition)
Text: as §4, §5, §6
HeLa is a human immortal cell line used in scientific research. It is the oldest and most commonly used human cell line. The line was derived from cervical cancer cells taken on Feb. 8, 1951 from Henrietta Lacks, a patient who died of cancer on Oct. 4, 1951.
as §3

[7] = tested on: pACLY (S455); experiment: ELISA of pACLY (S455) / ACLY enzymatic activity in PANC-1 cells; type: cell-based, human; conditions: 5 μM
Description: ELISA assay was used to evaluate the effect of GS compounds on protein activity levels in PANC-1 cancer cells. PANC-1 cells were serum-starved overnight and then treated with rIGF1 (100 ng/mL) for 24 hours, with or without GS27 (5 μM). The levels of the following proteins were evaluated by ELISA assay: a) p70 S6 (T389) (cat no. 54164C, Cell Signaling); b) pAKT (S473), (cat no. 80895, Cell Signaling); c) pACLY (S455), (cat no. okag1672, Avivasysbio); d) pAMPK (T172) (cat no. 7959C, Cell Signaling) and e) p65/NFKB (S536), (cat no. 7173, Cell Signaling).
PANC-1 is a human pancreatic ductal adenocarcinoma cell line derived from the carcinoma of a person.
The molecular mechanism of action of GS27, a compound that has exerted potent anti-cancer activity in different cancer cell lines including pancreatic cancer cells, was investigated. Oleacein has been implicated to have anti-inflammatory and metabolic effects, thus the potential effects of GS27 in different metabolic and inflammatory pathways were evaluated. Specifically, the protein levels of p70 S6 (T389), pAKT (S473), pACLY (S455), pAMPK (T172) and p65/NFKB (S536) were evaluated by ELISA assay in PANC-1 pancreatic cancer cells treated with 5 μM GS27. GS27 reduced p70 S6 and AKT phosphorylation levels, while it increased AMPK phosphorylation.
The effects of different GS compounds on ACLY enzymatic activity were evaluated by ELISA assay in PANC-1 pancreatic cancer cells. […] This finding is unexpected, since GS21 has a very similar structure with GS27, with the only difference being the presence of an oxygen atom in ester GS21 instead of a sulfur atom in thioester GS27.

[8] = tested on: MKN-45 gastric cancer cells; experiment: XTT cell growth assay, MKN-45; type: cell-based, human; conditions: Homo sapiens, MKN-45, 24 h, NS = not statistically significant, read-out: Effectiveness to suppress MKN-45 cell growth (cell growth inhibition)
Text: as §4, §5, §6
MKN-45 is a human gastric adenocarcinoma, established from the poorly differentiated adenocarcinoma of the stomach (medullary type) of a person.
as §3

[9] = Deoxyribose degradation assay (hydroxyl radical scavenging); type: biochemical; conditions: NS = not statistically significant
Description: The hydroxyl radical (OH.) is an extremely reactive in biological systems and has been implicated as highly damaging species in free radical pathology, capable of damaging biomolecules of the living cells. These radical combines with nucleotides in DNA and cause strand breakage leading to carcinogenesis, mutagenesis and cytotoxicity. Hydroxyl radical (OH.) scavenging capacity of an extract is directly related to its antioxidant activity.
The effect of extracts on hydroxyl radicals was assayed by using the deoxyribose method. 2-Deoxyribose is degraded on exposure to hydroxyl radicals generated by Fenton's reaction. The ability to neutralize the OH. is estimated as the rate of inhibition of the oxidation of 2-deoxyribose by the OH. (FIG. 5).
The measurement of the hydroxyl radical scavenging activity was evaluated for each of the GS compound by evaluating the pink chromogen absorption at 532 nm by spectrophotometry as described previously (Perjesi, Pal et al., Open Med Chem J., 2011, 5: 61-67

[10] = tested on: MIA PaCa-2 pancreatic cancer cells; experiment: Cell Glo luminescence cell growth assay, MIA PaCa-2; type: cell-based, human; conditions: Homo sapiens, MIA PaCa-2, 24 h, NS = not statistically significant, read-out: Effectiveness to suppress MIA PaCa-2 cell growth (cell growth inhibition)
Text: as §1, §2
MIA PaCa-2 is a human pancreatic ductal adenocarcinoma cell line derived from the carcinoma of a person.
as §3

In the case of `C/C=C1/[C@H](OC2OC(CO)C(O)C(O)C2O)OC=C(C(=O)O)[C@H]1CC(=O)OCCc1cccc(O)c1` (stereo in doubt) [GS14, (2S,4S,E)-3-ethylidene-4-(2-(3-hydroxyphenethoxy)-2-oxoethyl)-2-{[(2R,3S,4R,5R,6S)-3,4,5-trihydroxy-6-(hydroxymethyl)tetrahydro-2H-pyran-2-yl]oxy}-3,4-dihydro-2H-pyran-5-carboxylic acid], the inhibition at 1 µM [1] was 26.4%, the inhibition at 50 µM [2] was 38.2% and the “ABTS Radical Cation Scavenging Assay IC50” value [3] was 66 μg extract/mL. It also gave an inhibition at 50 µM [4] of 28.4%, an inhibition at 50 µM [5] of 10% and an inhibition at 50 µM [6] of 29.5%.

For `C/C=C(/C=O)[C@@H](CC=O)CC(=O)OCCc1ccccc1` [GS21, (35,4E)-4-formyl-3-(2-oxoethyl)-4-hexenoic acid 2-phenylethyl ester], the inhibition at 1 µM [1] was 21.5%, the “ACLY enzymatic activity (ELISA)” value [7] was “small effect” and the inhibition at 50 µM [2] was 52.5%. The inhibition at 50 µM [8] was 49.4%, the inhibition at 50 µM [4] was 66% and the “Deoxyribose Degradation Assay IC50” value [9] was 14.4 μg extract/mL. It also gave an inhibition at 50 µM [6] of 75.8%.

For `C/C=C(/C=O)[C@@H](CC=O)CC(=O)OCCC1CCCCC1` [GS22, 2-cyclohexylethyl (S,E)-4-formyl-3-(2-oxoethyl)hex-4-enoate], the inhibition at 50 µM [10] was 28%, the inhibition at 50 µM [2] was 48% and the inhibition at 50 µM [8] was 35.8%. The “Deoxyribose Degradation Assay IC50” value [9] was 16.8 μg extract/mL, the inhibition at 50 µM [5] was 66.8% and the inhibition at 50 µM [6] was 48.6%.
